{"source": "paper PMC9405123", "about": "“Design, Synthesis and Mechanistic Studies of Novel Isatin-Pyrazole Hydrazone Conjugates as Selective and Potent Bacterial MetAP Inhibitors” (Antibiotics, 2022)", "key": {"SH28": {"test_system": "SH28", "assay": "MIC on environmental MDR isolate (microdilution)", "conditions": "Aeromonas caviae"}, "HK43": {"test_system": "HK43", "assay": "MIC on environmental MDR isolate (microdilution)", "conditions": "Exiguobacterium mexicanum"}, "SH34": {"test_system": "SH34", "assay": "MIC on environmental MDR isolate (microdilution)", "conditions": "Serratia marcescens"}, "E. faecalis": {"test_system": "E. faecalis", "assay": "Minimum inhibitory concentration (broth dilution)", "assay_type": "cell-based", "conditions": "Enterococcus faecalis, alone"}, "HK91": {"test_system": "HK91", "assay": "MIC on environmental MDR isolate (microdilution)", "conditions": "Ralstonia"}, "JST68": {"test_system": "JST68", "assay": "MBC on environmental MDR isolate", "conditions": "Escherichia coli"}, "JST63": {"test_system": "JST63", "assay": "MIC on environmental MDR isolate (microdilution)"}, "LG24": {"test_system": "LG24", "assay": "MIC on environmental MDR isolate (microdilution)", "conditions": "Escherichia coli"}, "E. coli": {"test_system": "E. coli", "assay": "Minimum inhibitory concentration (broth dilution)", "assay_type": "cell-based, Escherichia coli", "conditions": "Escherichia coli, alone, read-out: MIC"}}, "data": [{"smiles": "O=C1Nc2ccc(F)cc2/C1=N\\NC(=O)c1cc(-c2cccc(Br)c2)n[nH]1", "note": "[PS9, (E)-3-(3-Bromophenyl)-N′-(5-Fluoro-2-Oxoindolin-3-Ylidene)-1H-Pyrazole-5-Carbohydrazide]", "values": [{"measurement": "MIC", "setting": "SH28", "value": 128, "unit": "µg/mL"}, {"measurement": "MIC", "setting": "HK43", "value": 16, "unit": "µg/mL"}, {"measurement": "MIC", "setting": "SH34", "value": "> 1020", "unit": "µg/mL"}, {"measurement": "MIC", "setting": "E. faecalis", "value": 8, "unit": "µg/mL"}, {"measurement": "MIC", "setting": "HK91", "value": 2, "unit": "µg/mL"}, {"measurement": "MBC", "setting": "JST68", "value": 256, "unit": "µg/mL"}, {"measurement": "MIC", "setting": "JST63", "value": 1000, "unit": "µg/mL"}, {"measurement": "MIC", "setting": "LG24", "value": "> 1020", "unit": "µg/mL"}, {"measurement": "MIC", "setting": "E. coli", "value": 16, "unit": "µg/mL"}]}]}
